Measurements from ChEMBL document CHEMBL1201862, “PubChem BioAssay data set” (2004).
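A five-concentration, 48-hour dose response in 96-well plates underlies each endpoint, interpolated linearly between surrounding concentrations. GI50: concentration for 50% inhibition of growth.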 Activity calls are given as the source filed them. Cut-off read from the data, not from the text of the source: active = GI50 up to about 1.1 µM and inactive = higher.

Key:
Test in all cases: inhibition of tumour cell growth, NCI panel, 48 h
SNB-19 = tested on: SNB-19
SF-539 = tested on: SF-539
MDA-N = tested on: MDA-N
NCI/ADR-RES = tested on: NCI/ADR-RES
BT-549 = tested on: BT-549
U-251 = tested on: U-251
UACC-62 = tested on: UACC-62
786-0 = tested on: 786-0
SK-MEL-2 = tested on: SK-MEL-2
UO-31 = tested on: UO-31
SNB-75 = tested on: SNB-75
A549 = tested on: A549
HL-60 = tested on: HL-60
COLO 205 = tested on: COLO 205
SF-295 = tested on: SF-295
OVCAR-5 = tested on: OVCAR-5
SK-OV-3 = tested on: SK-OV-3
M14 = tested on: M14
PC-3 = tested on: PC-3
MDA-MB-435 = tested on: MDA-MB-435

Compound | GI50 (SNB-19) | GI50 (SF-539) | GI50 (MDA-N) | GI50 (NCI/ADR-RES) | GI50 (BT-549) | GI50 (U-251) | GI50 (UACC-62) | GI50 (786-0) | GI50 (SK-MEL-2) | GI50 (UO-31) | GI50 (SNB-75) | GI50 (A549) | GI50 (HL-60) | GI50 (COLO 205) | GI50 (SF-295) | GI50 (OVCAR-5) | GI50 (SK-OV-3) | GI50 (M14) | GI50 (PC-3) | GI50 (MDA-MB-435)
CN(C)CCCNC(=O)CCNC(=O)c1cc(NC(=O)c2cc(NC(=O)c3cc(NC(=O)c4nccn4C)cn3C)cn2C)cn1C | 29.6 µM (inactive) | 54.6 µM (inactive) | > 100 µM (inactive) | > 100 µM (inactive) | > 100 µM (inactive) | 13.4 µM (inactive) | > 100 µM (inactive) | > 100 µM (inactive) | > 100 µM (inactive) | > 100 µM (inactive) | 54.7 µM (inactive) | > 100 µM (inactive) | 18.8 µM (inactive) | 20 µM (inactive) | > 100 µM (inactive) | > 100 µM (inactive) | > 100 µM (inactive) | > 100 µM (inactive) | > 100 µM (inactive) | > 100 µM (inactive)
CC(=O)C1(C)CC(C#N)(C#N)C(C#N)=C1N (stereo not given) | > 100 µM (inactive) | > 100 µM (inactive) | > 100 µM (inactive) | > 100 µM (inactive) | > 100 µM (inactive) | > 100 µM (inactive) | > 100 µM (inactive) | > 100 µM (inactive) | > 100 µM (inactive) | > 100 µM (inactive) | > 100 µM (inactive) | 25.1 µM (inactive) | > 100 µM (inactive) | > 100 µM (inactive) | > 100 µM (inactive) | > 100 µM (inactive) | > 100 µM (inactive) | > 100 µM (inactive) | > 100 µM (inactive) | > 100 µM (inactive)
CC1(C)CC2=C(Sc3ccccc3N2)C(=O)C1C(=O)C(=O)Nc1cccc([N+](=O)[O-])c1 (stereo not given) | > 100 µM (inactive) | > 100 µM (inactive) | > 100 µM (inactive) | > 100 µM (inactive) | > 100 µM (inactive) | > 100 µM (inactive) | 98.2 µM (inactive) | > 100 µM (inactive) | > 100 µM (inactive) | > 100 µM (inactive) | > 100 µM (inactive) | > 100 µM (inactive) | > 100 µM (inactive) | > 100 µM (inactive) | > 100 µM (inactive) | > 100 µM (inactive) | > 100 µM (inactive) | > 100 µM (inactive) | 75.9 µM (inactive) | > 100 µM (inactive)
Cc1cc(C)nc(NC(=S)Nc2ccc(Cl)cc2)c1 | > 100 µM (inactive) | 53.2 µM (inactive) | > 100 µM (inactive) | 29.2 µM (inactive) | > 100 µM (inactive) | 35.9 µM (inactive) | > 100 µM (inactive) | 22.5 µM (inactive) | > 100 µM (inactive) | > 100 µM (inactive) | 11.9 µM (inactive) | > 100 µM (inactive) | > 100 µM (inactive) | > 100 µM (inactive) | 43.1 µM (inactive) | 29.2 µM (inactive) | 23.4 µM (inactive) | > 100 µM (inactive) | > 100 µM (inactive) | > 100 µM (inactive)
Clc1ccccc1/C=C/c1ccnc2ccccc12 | 16.8 µM (inactive) | 18.4 µM (inactive) | 14.6 µM (inactive) | 15.2 µM (inactive) | 14.6 µM (inactive) | 16.8 µM (inactive) | 15.2 µM (inactive) | 15.8 µM (inactive) | 16.6 µM (inactive) | 17.3 µM (inactive) | 15.6 µM (inactive) | 16.2 µM (inactive) | 19.8 µM (inactive) | 13.8 µM (inactive) | 15.7 µM (inactive) | 19.9 µM (inactive) | 18.5 µM (inactive) | 17.3 µM (inactive) | 16.4 µM (inactive) | 15.8 µM (inactive)
OC(CCN1CCN(CCOC(c2ccccc2)c2ccccc2)CC1)c1ccccc1 (stereo not given) | 32.4 µM (inactive) | 20.1 µM (inactive) | 19.3 µM (inactive) | 21.5 µM (inactive) | 23.8 µM (inactive) | 16.3 µM (inactive) | 11.5 µM (inactive) | 18 µM (inactive) | 15.8 µM (inactive) | 24.7 µM (inactive) | 40.9 µM (inactive) | 44.6 µM (inactive) | 16.7 µM (inactive) | 14.5 µM (inactive) | 20.1 µM (inactive) | 33.2 µM (inactive) | 35.8 µM (inactive) | 18.1 µM (inactive) | 21.5 µM (inactive) | 18.5 µM (inactive)
COc1ccc(CCN(C)C(=O)CC(C#N)(c2ccccc2)c2ccc(OC)c(OC)c2)cc1OC (stereo not given) | > 100 µM (inactive) | > 100 µM (inactive) | > 100 µM (inactive) | > 100 µM (inactive) | > 100 µM (inactive) | > 100 µM (inactive) | > 100 µM (inactive) | > 100 µM (inactive) | > 100 µM (inactive) | > 74.6 µM (inactive) | > 100 µM (inactive) | > 100 µM (inactive) | > 100 µM (inactive) | > 100 µM (inactive) | > 100 µM (inactive) | > 100 µM (inactive) | > 100 µM (inactive) | > 100 µM (inactive) | > 100 µM (inactive) | > 100 µM (inactive)
C(#CP(c1ccccc1)c1ccccc1)P(C#CP(c1ccccc1)c1ccccc1)c1ccccc1 | > 100 µM (inactive) | > 100 µM (inactive) | > 100 µM (inactive) | > 100 µM (inactive) | > 100 µM (inactive) | > 100 µM (inactive) | > 100 µM (inactive) | > 100 µM (inactive) | > 100 µM (inactive) | > 100 µM (inactive) | > 100 µM (inactive) | > 100 µM (inactive) | > 100 µM (inactive) | > 100 µM (inactive) | 5.9 µM (inactive) | 1.63 µM (inactive) | 2.77 µM (inactive) | 0.798 µM (active) | > 100 µM (inactive) | > 100 µM (inactive)
O=C(O)c1ccc(NNC(=O)c2cccc3c(=O)c4ccccc4[nH]c23)cc1 | > 100 µM (inactive) | > 100 µM (inactive) | > 100 µM (inactive) | > 100 µM (inactive) | 85.7 µM (inactive) | 80.7 µM (inactive) | > 100 µM (inactive) | > 100 µM (inactive) | > 100 µM (inactive) | 89.7 µM (inactive) | > 100 µM (inactive) | > 100 µM (inactive) | 50.8 µM (inactive) | > 100 µM (inactive) | > 100 µM (inactive) | > 100 µM (inactive) | > 100 µM (inactive) | > 100 µM (inactive) | > 100 µM (inactive) | > 100 µM (inactive)
CN(C)CCn1c(=O)c2ccc3c4c(nn3CCN(C)C)c3cc(N)ccc3n(c1=O)c24 | < 0.0111 µM (active) | 0.0291 µM (active) | < 0.0239 µM (active) | 0.0349 µM (active) | 0.127 µM (active) | < 0.0111 µM (active) | 0.0902 µM (active) | < 0.01 µM (active) | < 0.0292 µM (active) | < 0.0132 µM (active) | < 0.01 µM (active) | < 0.01 µM (active) | 0.0279 µM (active) | < 0.0239 µM (active) | 0.0145 µM (active) | < 0.027 µM (active) | < 0.0211 µM (active) | 0.0259 µM (active) | < 0.0153 µM (active) | < 0.0209 µM (active)
